Drawing on patent US11083199B2, “Heterocycle derivatives as pesticides” (Bayer Aktiengesellschaft, priority 2017, dated 2021), this text covers pest or weed control for 17 molecules.

SMILES strings stand for the structures.

Format in all cases: in vivo
In assay [1] the test system is Ctenocephalides felis. The assay can be described thus: Ctenocephalides felis oral test. The following applies: 48 h, application rate 100 ppm in citrated cattle blood, kill after 2 days, read-out: efficacy. The protocol: Solvent: dimethyl sulfoxide To produce a suitable active ingredient formulation, 10 mg of active ingredient are mixed with 0.5 ml of dimethyl sulfoxide. Dilution with citrated cattle blood gives the desired concentration. About 20 unfed adult cat fleas (Ctenocephalides felis) are placed into a chamber which is closed at the top and bottom with gauze. A metal cylinder whose bottom end is closed with parafilm is placed onto the chamber. The cylinder contains the blood/active ingredient formulation, which can be imbibed by the fleas through the parafilm membrane. After 2 days, the kill in % is determined. 100% means that all of the fleas have been killed; 0% means that none of the fleas have been killed.

For another assay, the system named is Lucilia cuprina. The assay can be described thus: Lucilia cuprina test. The following applies: 48 h, application rate 100 ppm, L1 larvae, kill after 2 days, read-out: efficacy. The protocol: Solvent: dimethyl sulfoxide To produce a suitable active ingredient formulation, 10 mg of active ingredient are mixed with 0.5 ml of dimethyl sulfoxide, and the concentrate is diluted with water to the desired concentration. About 20 L1 larvae of the Australian sheep blowfly (Lucilia cuprina) are transferred into a test vessel containing minced horsemeat and the active ingredient formulation of the desired concentration. After 2 days, the kill in % is determined. 100% means that all the larvae have been killed; 0% means that no larvae have been killed.

Assay [2] has as its system Myzus persicae. The assay can be described thus: Myzus persicae oral test. The following applies: 120 h, application rate 4 ppm, after 5 days, read-out: efficacy. Here is the method: [table] To produce a suitable active ingredient formulation, 1 part by weight of active ingredient is dissolved with the stated parts by weight of solvent and made up to the desired concentration with water. 50 μl of the active ingredient formulation are transferred into microtitre plates and made up to a final volume of 200 μl with 150 μl of IPL41 insect medium (33%+15% sugar). Subsequently, the plates are sealed with parafilm, which a mixed population of green peach aphids (Myzus persicae) within a second microtitre plate is able to puncture and imbibe the solution. After 5 days, the efficacy in % is determined. 100% means that all the aphids have been killed; 0% means that no aphids have been killed.

The test system of assay [3] is Myzus persicae. Kind of assay: Myzus persicae spray test. The following applies: foliar, 120 h, application rate 100 g/ha, Chinese cabbage leaf discs, after 5 days, read-out: efficacy. Here is the method: (§1) [table] To produce a suitable active ingredient formulation, 1 part by weight of active ingredient is dissolved with the specified parts by weight of solvent and made up to the desired concentration with water containing an emulsifier concentration of 1000 ppm. To produce further test concentrations, the formulation is diluted with emulsifier-containing water. Discs of Chinese cabbage leaves (Brassica pekinensis) infested by all stages of the green peach aphid (Myzus persicae) are sprayed with an active ingredient formulation of the desired concentration. After 5 days, the efficacy in % is determined. 100% means that all the aphids have been killed; 0% means that no aphids have been killed.

Assay [4] has as its system Ctenocephalides felis. The assay can be described thus: Ctenocephalides felis in vitro contact test with adult cat fleas. The conditions noted are these: application rate 5 μg/cm^2 (=500 g/ha), adult cat fleas dead or moribund after 48 h, read-out: efficacy. The protocol:
For the coating of the test tubes, 9 mg of active ingredient are first dissolved in 1 ml of acetone p.a. and then diluted to the desired concentration with acetone p.a. 250 μl of the solution are distributed homogeneously on the inner walls and the base of a 25 ml glass tube by turning and rocking on an orbital shaker (rocking rotation at 30 rpm for 2 h). With 900 ppm of active ingredient solution and internal surface area 44.7 cm^2, given homogeneous distribution, an area-based dose of 5 μg/cm^2 is achieved. After the solvent has evaporated off, the tubes are populated with 5-10 adult cat fleas (Ctenocephalides felis), sealed with a perforated plastic lid and incubated in a horizontal position at room temperature and ambient humidity. After 48 h, efficacy is determined. To this end, the tubes are stood upright and the fleas are knocked to the base of the tube. Fleas which remain motionless at the base or move in an uncoordinated manner are considered to be dead or moribund. […] 100% efficacy means that all the fleas were dead or moribund. 0% efficacy means that no fleas were harmed.

The test system of the next assay is Phaedon cochleariae. Kind of assay: Phaedon cochleariae spray test. The conditions noted are these: 168 h, larvae, after 7 days, read-out: efficacy; for pest or weed control at 100 g/ha: application rate 100 g/ha. The protocol: as §1, with “pekinensis)” for “pekinensis) infested by all stages of the green peach aphid (Myzus persicae)”, “concentration and, after drying, populated with larvae of the mustard beetle (Phaedon cochleariae).” for “concentration.”, “7” for “5”, “beetle larvae” for “aphids”

For the next assay, the system named is Tetranychus urticae. The assay can be described thus: Tetranychus urticae spray test, OP-resistant. The conditions noted are these: foliar, 144 h, bean leaf discs, after 6 days, read-out: efficacy; for pest or weed control at 20 g/ha: application rate 20 g/ha; for pest or weed control at 100 g/ha: application rate 100 g/ha. Here is the method:
[table] To produce a suitable active ingredient formulation, 1 part by weight of active ingredient is dissolved with the specified parts by weight of solvent and made up to the desired concentration with water containing an emulsifier concentration of 1000 ppm. To produce further test concentrations, the formulation is diluted with emulsifier-containing water. Discs of bean leaves (Phaseolus vulgaris) infested with all stages of the greenhouse red spider mite (Tetranychus urticae) are sprayed with an active ingredient formulation of the desired concentration. After 6 days, the efficacy in % is determined. 100% means that all the spider mites have been killed; 0% means that no spider mites have been killed.

A further assay relates to Spodoptera frugiperda. The assay can be described thus: Spodoptera frugiperda spray test. The conditions noted are these: foliar, 168 h, application rate 100 g/ha, maize leaf discs, caterpillars, after 7 days, read-out: efficacy. Here is the method: [table] To produce a suitable active ingredient formulation, 1 part by weight of active ingredient is dissolved with the specified parts by weight of solvent and made up to the desired concentration with water containing an emulsifier concentration of 1000 ppm. To produce further test concentrations, the formulation is diluted with emulsifier-containing water. Leaf discs of maize (Zea mays) are sprayed with an active ingredient formulation of the desired concentration and, after drying, populated with caterpillars of the fall armyworm (Spodoptera frugiperda). After 7 days, the efficacy in % is determined. 100% means that all the caterpillars have been killed; 0% means that no caterpillar has been killed.

As to `CCS(=O)(=O)c1c(-c2nc3cc(C(F)(F)F)ncc3n2C)nc(-c2ccccc2)n1C` [Example I-003], the pest or weed control at 100 ppm with Ctenocephalides felis [1] and in the assay on Lucilia cuprina was 100% throughout. Besides, the pest or weed control at 4 ppm with Myzus persicae [2] was 100%. For the same molecule, the pest or weed control at 100 g/ha in the assay on Myzus persicae [3] turned out to be 90%. In addition, in the assay on Ctenocephalides felis [4], the pest or weed control at 5 µg/cm2, 500 g/ha is 100%.
Regarding `CCS(=O)(=O)c1c(-c2nc3cc(C(F)(F)F)ncc3n2C)nc(-c2ccccn2)n1C` [Example I-013], the pest or weed control at 100 g/ha in the assay with Phaedon cochleariae is 100%; in the assay on Myzus persicae [3] it was 90%. For the same molecule, the pest or weed control at 100 ppm with Ctenocephalides felis [1] and in the assay on Lucilia cuprina was 100% in each case. Besides, the pest or weed control at 4 ppm in the assay with Myzus persicae [2] was determined as 100%. In addition, the pest or weed control at 5 µg/cm2, 500 g/ha in the assay on Ctenocephalides felis [4] is 100%.
With `CCS(=O)(=O)c1c(-c2nc3cc(C(F)(F)F)ncc3n2C)ncn1C` [Example I-029, 2-[5-(Ethylsulfonyl)-1-methyl-1H-imidazol-4-yl]-3-methyl-6-(trifluoromethyl)-3H-imidazo[4,5-c]pyridine], the pest or weed control at 100 g/ha in the assay on Phaedon cochleariae was found to be 100%; with Myzus persicae [3], 70%. For the same molecule, the pest or weed control at 100 ppm with Ctenocephalides felis [1] and with Lucilia cuprina was 95% throughout. In addition, the pest or weed control at 4 ppm with Myzus persicae [2] was 100%.
As for `CCS(=O)(=O)c1c(-c2nc3cc(C(F)(F)F)ncc3n2C)nc(-c2cnn(C)c2)n1C` [Example I-042], the pest or weed control at 100 g/ha is 100% with Phaedon cochleariae and 90% in the assay with Myzus persicae [3]. In addition, the pest or weed control at 20 g/ha in the assay with Tetranychus urticae worked out at 90%. Further, the pest or weed control at 4 ppm in the assay with Myzus persicae [2] worked out at 100%.
In the case of `CCS(=O)(=O)c1c(-c2nc3cc(C(F)(F)F)ncc3n2C)nc(-c2c(C)nn(C)c2C)n1C` [Example I-050], the pest or weed control at 100 g/ha with Tetranychus urticae and with Myzus persicae [3] was 90% throughout. The pest or weed control at 4 ppm with Myzus persicae [2] worked out at 90%.
On to `CCS(=O)(=O)c1c(-c2nc3cc(C(F)(F)F)ncc3n2C)nc(-c2ccc(C#N)n2C)n1C` [Example I-054], for which the pest or weed control at 100 g/ha in the assay on Tetranychus urticae was 100%. In addition, the pest or weed control at 4 ppm in the assay on Myzus persicae [2] came to 90%.
With `CCS(=O)(=O)c1c(-c2nc3cc(C(F)(F)F)ncc3n2C)nc(-c2cnn(C3CC3)c2)n1C` [Example I-055], the pest or weed control at 100 g/ha with Phaedon cochleariae was determined as 100%; in the assay on Tetranychus urticae, 90%; in the assay on Myzus persicae [3] it was 90%. The pest or weed control at 100 ppm with Ctenocephalides felis [1] and with Lucilia cuprina was 100% throughout. Moreover, the pest or weed control at 4 ppm in the assay with Myzus persicae [2] was determined as 100%.
On to `CCS(=O)(=O)c1c(-c2nc3cc(C(F)(F)F)ncc3n2C)nc(-c2ccc(C(C)(C)C#N)cc2)n1C` [Example I-066], for which the pest or weed control at 500 g/ha with Phaedon cochleariae (application rate 500 g/ha) stood at 83%. The pest or weed control at 100 g/ha in the assay with Tetranychus urticae worked out at 90%; with Myzus persicae [3], 70%. In addition, the pest or weed control at 4 ppm in the assay on Myzus persicae [2] amounted to 100%.
In the case of `CCS(=O)(=O)c1c(-c2nc3cc(C(F)(F)F)ncc3n2C)nc(-c2ccc(C3(C#N)CC3)c(F)c2)n1C` [Example I-070], the pest or weed control at 100 g/ha in the assay with Phaedon cochleariae stood at 100%; in the assay with Spodoptera frugiperda it was 83%; in the assay on Tetranychus urticae, 100%; in the assay with Myzus persicae [3] it was 100%. For the same molecule, the pest or weed control at 4 ppm in the assay with Myzus persicae [2] was determined as 100%.
On to `CCS(=O)(=O)c1c(-c2nc3cc(C(F)(F)F)ncc3n2C)nc(C2=CCC(C)CC2)n1C` (centres unmarked) [Example I-074], for which the pest or weed control at 100 g/ha in the assay with Tetranychus urticae and with Myzus persicae [3] was 90% in each case.
On to `CCS(=O)(=O)c1c(-c2nc3cc(C(F)(F)F)ncc3n2C)nc(-c2cccc(C(C)(C)C#N)c2)n1C` [Example I-075], for which the pest or weed control at 100 g/ha with Tetranychus urticae and in the assay on Myzus persicae [3] was 90% in each case. Moreover, the pest or weed control at 4 ppm in the assay on Myzus persicae [2] worked out at 100%.
With `CCS(=O)(=O)c1c(-c2nc3cc(C(F)(F)F)ncc3n2C)nc(-c2ccc(C3(C#N)CC3)cc2C)n1C` [Example I-076], the pest or weed control at 100 g/ha in the assay on Phaedon cochleariae is 100%; in the assay on Spodoptera frugiperda it was 100%; with Tetranychus urticae, 90%; in the assay on Myzus persicae [3], 100%.
For `CCS(=O)(=O)c1c(-c2nc3cc(C(F)(F)F)ncc3n2C)nc(-c2cc(Cl)cc(C3(C#N)CC3)c2)n1C` [Example I-077], the pest or weed control at 100 g/ha with Phaedon cochleariae is 100%; in the assay with Tetranychus urticae, 100%; in the assay on Myzus persicae [3], 90%. The pest or weed control at 20 g/ha with Tetranychus urticae was determined as 90%.
`CCS(=O)(=O)c1c(-c2nc3cc(C(F)(F)F)ncc3n2C)nc(-c2ccc(C#N)c(Cl)c2)n1C` [Example I-082]: the pest or weed control at 100 g/ha is 100% in the assay on Phaedon cochleariae, 83% with Spodoptera frugiperda, 100% with Tetranychus urticae and 90% in the assay with Myzus persicae [3]. Besides, the pest or weed control at 20 g/ha in the assay on Tetranychus urticae is 100%. In the assay with Myzus persicae [2], the pest or weed control at 4 ppm was determined as 100%.
In the case of `CCS(=O)(=O)c1c(-c2nc3cc(C(F)(F)F)ncc3n2C)nc(C(C)C)n1C` [Example I-086], the pest or weed control at 100 g/ha with Tetranychus urticae and in the assay on Myzus persicae [3] was 90% in each case. The pest or weed control at 4 ppm in the assay with Myzus persicae [2] was determined as 100%.
Turning to `CCS(=O)(=O)c1c(-c2nc3cc(C(F)(F)F)ncc3n2C)nc(-c2cccc(C3(C#N)CC3)c2)n1C` [Example I-087], the pest or weed control at 100 g/ha with Phaedon cochleariae and with Spodoptera frugiperda was 100% each time. For the same molecule, the pest or weed control at 20 g/ha with Tetranychus urticae was 90%. Besides, in the assay on Myzus persicae [2], the pest or weed control at 4 ppm turned out to be 100%.
For `CCS(=O)(=O)c1c(-n2cc3ccc(C(F)(F)F)cc3n2)nc(-c2ccc(Cl)cc2)n1C` [Example I-092], the pest or weed control at 100 g/ha was found to be 67% in the assay on Phaedon cochleariae, 100% with Spodoptera frugiperda and 100% with Tetranychus urticae. In the assay on Lucilia cuprina, the pest or weed control at 100 ppm stood at 100%. Besides, the pest or weed control at 4 ppm in the assay on Myzus persicae [2] is 100%.
